Data as given in ChEMBL document CHEMBL6074677, “Development of dual V1a/V2 antagonists containing triazolobenzazepine scaffold” (Eur J Med Chem, 2025).

Legend:
[1] = Apparent permeability across apical to basolateral side in vinblastine treated human Caco-2 cells incubated for 15 to 60 mins by HPLC analysis; assay type: ADME, cell-based; settings: time 15-60 min
[2] = target: Voltage-gated inwardly rectifying potassium channel KCNH2 (Homo sapiens, UniProt Q12809); assay: Inhibition of human ERG expressed in CHO cells at -80 mV holding potential measured for 7 to 10 mins by automated patch clamp method; assay type: toxicity, cell-based
Chain of Voltage-gated inwardly rectifying potassium channel KCNH2 (Q12809 whole entry): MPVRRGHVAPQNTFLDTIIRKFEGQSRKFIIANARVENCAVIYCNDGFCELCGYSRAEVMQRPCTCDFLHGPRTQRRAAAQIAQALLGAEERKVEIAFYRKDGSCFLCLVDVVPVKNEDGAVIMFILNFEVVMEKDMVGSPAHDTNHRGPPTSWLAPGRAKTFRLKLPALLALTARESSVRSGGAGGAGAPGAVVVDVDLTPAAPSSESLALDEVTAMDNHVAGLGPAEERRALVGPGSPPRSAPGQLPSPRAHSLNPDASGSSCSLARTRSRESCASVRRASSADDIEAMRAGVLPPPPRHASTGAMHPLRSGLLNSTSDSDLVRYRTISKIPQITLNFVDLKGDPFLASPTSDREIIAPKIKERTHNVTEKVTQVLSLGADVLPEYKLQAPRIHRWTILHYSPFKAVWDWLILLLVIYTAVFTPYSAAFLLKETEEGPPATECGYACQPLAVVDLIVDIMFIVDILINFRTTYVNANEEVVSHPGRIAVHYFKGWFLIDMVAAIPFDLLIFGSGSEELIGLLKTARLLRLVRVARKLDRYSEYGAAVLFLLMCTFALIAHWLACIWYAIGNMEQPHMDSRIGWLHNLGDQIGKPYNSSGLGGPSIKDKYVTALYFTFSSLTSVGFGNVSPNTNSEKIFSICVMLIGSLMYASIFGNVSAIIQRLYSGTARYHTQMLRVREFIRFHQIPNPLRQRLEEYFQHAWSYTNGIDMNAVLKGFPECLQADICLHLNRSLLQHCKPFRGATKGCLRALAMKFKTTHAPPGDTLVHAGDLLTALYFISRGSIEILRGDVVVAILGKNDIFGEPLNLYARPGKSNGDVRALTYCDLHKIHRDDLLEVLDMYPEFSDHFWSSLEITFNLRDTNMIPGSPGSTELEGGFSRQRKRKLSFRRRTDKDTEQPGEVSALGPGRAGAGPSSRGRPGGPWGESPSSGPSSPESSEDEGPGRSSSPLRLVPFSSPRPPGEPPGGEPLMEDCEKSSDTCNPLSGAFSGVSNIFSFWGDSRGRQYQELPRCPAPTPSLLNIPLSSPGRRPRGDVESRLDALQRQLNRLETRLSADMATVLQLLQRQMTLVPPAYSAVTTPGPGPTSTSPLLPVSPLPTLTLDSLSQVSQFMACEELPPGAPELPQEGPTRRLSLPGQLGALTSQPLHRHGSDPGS

Vasopressin V1a receptor [3] = target: T1, Vasopressin V1a receptor (Homo sapiens, UniProt P37288); assay: Displacement of [3H]AVP from human vasopressin V1a receptor expressed in human 1321N1 cells assessed as inhibition constant; assay type: cell-based
T1 sequence (P37288 whole entry): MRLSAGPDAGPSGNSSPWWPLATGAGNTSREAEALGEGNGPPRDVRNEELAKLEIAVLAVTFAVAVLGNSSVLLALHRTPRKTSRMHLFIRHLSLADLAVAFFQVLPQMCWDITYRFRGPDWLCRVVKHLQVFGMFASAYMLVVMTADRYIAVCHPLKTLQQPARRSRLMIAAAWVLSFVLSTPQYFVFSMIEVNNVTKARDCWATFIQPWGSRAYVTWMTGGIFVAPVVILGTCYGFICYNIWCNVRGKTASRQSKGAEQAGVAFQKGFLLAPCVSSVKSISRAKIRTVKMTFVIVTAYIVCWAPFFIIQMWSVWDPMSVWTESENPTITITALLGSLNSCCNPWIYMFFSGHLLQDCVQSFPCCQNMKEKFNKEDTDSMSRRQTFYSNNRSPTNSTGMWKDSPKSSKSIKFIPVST

Vasopressin V2 receptor = Vasopressin V2 receptor (Homo sapiens, UniProt P30518); assay: Displacement of [3H]AVP from human vasopressin V2 receptor expressed in human 1321N1 cells assessed as inhibition constant; assay type: cell-based
Chain of Vasopressin V2 receptor (P30518 whole entry): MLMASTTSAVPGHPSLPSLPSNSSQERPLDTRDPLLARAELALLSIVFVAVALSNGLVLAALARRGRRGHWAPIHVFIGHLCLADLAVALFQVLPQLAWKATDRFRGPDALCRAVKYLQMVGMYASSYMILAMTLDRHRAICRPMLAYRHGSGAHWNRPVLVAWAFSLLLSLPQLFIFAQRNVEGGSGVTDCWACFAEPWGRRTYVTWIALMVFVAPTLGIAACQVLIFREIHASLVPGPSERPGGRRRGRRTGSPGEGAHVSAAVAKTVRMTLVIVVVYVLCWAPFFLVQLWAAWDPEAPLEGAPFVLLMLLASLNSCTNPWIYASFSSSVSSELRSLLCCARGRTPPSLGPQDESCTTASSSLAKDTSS

[4] = Metabolic stability in human liver microsomes assessed as intrinsic clearance at 1 uM in presence of NADPH; assay type: ADME, Microsome; settings: read-out: CLH
[5] = Metabolic stability in rat liver microsomes assessed as intrinsic clearance at 1 uM in presence of NADPH; assay type: ADME, Microsome; settings: read-out: CLH
[6] = Metabolic stability in mouse liver microsomes assessed as intrinsic clearance at 1 uM in presence of NADPH; assay type: ADME, Microsome; settings: read-out: CLH
[7] = target: Vasopressin V1a receptor (Mus musculus) (UniProt Q62463); assay: In vivo antagonist activity at vasopressin V1a receptor in male NMRI mouse assessed as inhibition of oxytocin-induced scratching behavior at 3 mg/kg, po pretreated with compound for 60 mins followed by oxytocin administration and measured after 1 hrs relative to control; assay type: functional, organism-based; settings: time 120.0 min
Chain of Vasopressin V1a receptor (Mus musculus) (Q62463 whole entry, looked up): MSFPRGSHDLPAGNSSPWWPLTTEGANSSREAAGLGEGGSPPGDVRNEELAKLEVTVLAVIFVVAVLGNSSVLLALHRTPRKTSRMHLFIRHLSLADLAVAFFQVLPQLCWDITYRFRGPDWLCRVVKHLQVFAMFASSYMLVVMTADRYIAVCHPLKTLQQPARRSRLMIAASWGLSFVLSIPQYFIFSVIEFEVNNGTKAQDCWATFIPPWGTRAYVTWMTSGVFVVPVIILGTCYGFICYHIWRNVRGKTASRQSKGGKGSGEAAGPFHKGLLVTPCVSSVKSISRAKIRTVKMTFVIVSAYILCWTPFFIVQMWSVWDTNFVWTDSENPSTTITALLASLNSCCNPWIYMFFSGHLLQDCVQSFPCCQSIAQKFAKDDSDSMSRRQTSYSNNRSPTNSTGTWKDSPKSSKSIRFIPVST

[8] = target: Vasopressin V1a receptor (Mus musculus) (UniProt Q62463); assay: In vivo antagonist activity at vasopressin V1a receptor in male NMRI mouse assessed as inhibition of oxytocin-induced scratching behavior at 1 mg/kg, po pretreated with compound for 60 mins followed by oxytocin administration and measured after 1 hrs relative to control; assay type: functional, organism-based; settings: time 120.0 min
[9] = target: Vasopressin V1a receptor (Mus musculus) (UniProt Q62463); assay: In vivo antagonist activity at vasopressin V1a receptor in male NMRI mouse assessed as inhibition of oxytocin-induced scratching behavior at 0.3 mg/kg, po pretreated with compound for 60 mins followed by oxytocin administration and measured after 1 hrs relative to control; assay type: functional, organism-based; settings: time 120.0 min
[10] = target: Vasopressin V1a receptor (Mus musculus) (UniProt Q62463); assay: In vivo antagonist activity at vasopressin V1a receptor in male NMRI mouse assessed as inhibition of oxytocin-induced scratching behavior at 0.1 mg/kg, po pretreated with compound for 60 mins followed by oxytocin administration and measured after 1 hrs relative to control; assay type: functional, organism-based; settings: time 120.0 min
Vasopressin V1a receptor [11] = target: T1, Vasopressin V1a receptor; assay: Displacement of [3H]AVP from human vasopressin V1a receptor expressed in human 1321N1 cells; assay type: cell-based
Vasopressin V1a receptor [12] = target: Vasopressin V1a receptor (Mus musculus, UniProt Q62463); assay: Displacement of [3H]AVP from mouse vasopressin V1a receptor expressed in human 1321N1 cells assessed as inhibition constant; assay type: cell-based
Chain of Vasopressin V1a receptor (Mus musculus, UniProt Q62463) (Q62463 whole entry): as the sequence (Q62463 whole entry, looked up) above

Row | Structure (SMILES) | Papp A→B [1] | IC50 [2] | Ki (Vasopressin V1a receptor [3]) | Ki (Vasopressin V2 receptor) | microsomal CLint at 1 µM [4] | microsomal CLint at 1 µM [5] | microsomal CLint at 1 µM [6] | inhibition [7] | inhibition [8] | inhibition [9] | inhibition [10] | IC50 (Vasopressin V1a receptor [11]) | Ki (Vasopressin V1a receptor [12])
1 | Cc1nc2c([nH]1)-c1ccccc1N(C(=O)c1ccc(NC(=O)c3ccccc3-c3ccccc3)cc1)CC2 [CONIVAPTAN] | 2.9 ×10⁻⁶ cm/s | > 5000 nM | – | – | – | – | – | – | – | – | – | – | –
2 | Clc1ccc2c(c1)CC1(CCOCC1)Cc1nnc(N3CCN(c4cccc5c4OCC5)CC3)n1-2 | – | – | 0.41 nM | 1.1 nM | 78.3 µL/min/mg | 48.2 µL/min/mg | 70.7 µL/min/mg | – | – | – | – | – | –
3 | Cc1cccc(N2CCN(c3nnc4n3-c3ccc(Cl)cc3CC(C(N)=O)C4)CC2)c1C (stereo not given) | – | – | 0.65 nM | 13 nM | 5.1 µL/min/mg | 14.5 µL/min/mg | 9.1 µL/min/mg | – | – | – | – | – | –
4 | Clc1ccc2c(c1)CC1(Cc3nnc(N4CCN(c5nccc6ccsc56)CC4)n3-2)OCCO1 | – | – | 0.14 nM | 6.5 nM | 24.3 µL/min/mg | 141 µL/min/mg | 83.3 µL/min/mg | – | – | – | – | – | –
5 | Clc1ccc2c(c1)CC1(Cc3nnc(C4CCN(c5cccc6c5COC6)CC4)n3-2)OCCO1 | – | – | 0.21 nM | 26 nM | – | – | – | – | – | – | – | – | –
6 | Clc1ccc2c(c1)CC1(Cc3nnc(N4CCN(c5cccc6c5CCO6)CC4)n3-2)OCCO1 | 30 ×10⁻⁶ cm/s | 10000 nM | 0.38 nM | 2.2 nM | 11.5 µL/min/mg | 28.2 µL/min/mg | 21.8 µL/min/mg | – | – | – | – | – | –
7 | Clc1ccc2c(c1)CC1(Cc3nnc(N4CCN(c5nccc6ccoc56)CC4)n3-2)OCCO1 | – | – | 0.28 nM | 21 nM | 18 µL/min/mg | 110 µL/min/mg | 44.6 µL/min/mg | – | – | – | – | – | –
8 | Clc1ccc2c(c1)CC1(Cc3nnc(N4CCC(c5cccc6c5OCO6)CC4)n3-2)OCCO1 | – | – | 0.2 nM | 0.9 nM | – | – | – | – | – | – | – | – | –
9 | Clc1ccc2c(c1)CC1(Cc3nnc(N4CCN(c5ccccn5)CC4)n3-2)OCCO1 | 39.9 ×10⁻⁶ cm/s | – | – | 4.7 nM | 9.1 µL/min/mg | 25.4 µL/min/mg | 21.7 µL/min/mg | – | – | – | – | – | –
10 | Clc1ccc2c(c1)CC1(Cc3nnc(N4CCC(Oc5ccccn5)CC4)n3-2)OCCO1 | 40.4 ×10⁻⁶ cm/s | 8200 nM | – | 20 nM | 10.9 µL/min/mg | 33.3 µL/min/mg | 28.4 µL/min/mg | – | – | – | – | – | –
11 | Clc1ccc2c(c1)CC1(Cc3nnc(C4CCN(c5cccc6c5CCO6)CC4)n3-2)OCCO1 | – | – | 0.3 nM | 26 nM | – | – | – | – | – | – | – | – | –
12 | Clc1ccc2c(c1)CC1(Cc3nnc(N4CCN(c5cccc6c5OCO6)CC4)n3-2)OCCO1 | 31 ×10⁻⁶ cm/s | 11000 nM | 0.25 nM | 0.8 nM | 8.8 µL/min/mg | 31.7 µL/min/mg | 25.1 µL/min/mg | – | – | – | – | – | –
13 | Clc1ccc2c(c1)CC1(Cc3nnc(N4CCN(c5cccc6c5OCC6)CC4)n3-2)OCCO1 | 30 ×10⁻⁶ cm/s | > 30000 nM | 0.13 nM | 0.53 nM | 15.9 µL/min/mg | 36.9 µL/min/mg | 27.1 µL/min/mg | 86% | 91% | 85% | 81% | 2.2 nM | 0.5 nM
14 | NC(=O)C1Cc2cc(Cl)ccc2-n2c(nnc2N2CCC3(CC2)OCc2ccccc23)C1 (stereo not given) | – | – | 2.1 nM | 327 nM | – | – | – | – | – | – | – | – | –
15 | Clc1ccc2c(c1)CC1(Cc3nnc(N4CCC(c5cccc6c5OCC6)CC4)n3-2)OCCO1 | – | – | 0.2 nM | 0.7 nM | – | – | – | – | – | – | – | – | –
16 | NC(=O)C1Cc2cc(Cl)ccc2-n2c(nnc2N2CCC(N3CCCCC3)CC2)C1 (stereo not given) | – | – | 98 nM | – | 0.2 µL/min/mg | 0.2 µL/min/mg | 0.2 µL/min/mg | – | – | – | – | – | –
17 | CC1(C)Cc2cccc(N3CCN(c4nnc5n4-c4ccc(Cl)cc4CC4(C5)OCCO4)CC3)c2O1 | – | – | 0.82 nM | 24 nM | 107 µL/min/mg | 113 µL/min/mg | 99.5 µL/min/mg | – | – | – | – | – | –

Row | Structure (SMILES) | Papp A→B [1] | IC50 [2] | Ki (Vasopressin V1a receptor [3]) | Ki (Vasopressin V2 receptor) | microsomal CLint at 1 µM [4] | microsomal CLint at 1 µM [5] | microsomal CLint at 1 µM [6] | inhibition [7] | inhibition [8] | inhibition [9] | inhibition [10] | IC50 (Vasopressin V1a receptor [11]) | Ki (Vasopressin V1a receptor [12])
18 | Clc1ccc2c(c1)CC1(Cc3nnc(N4CCN(c5ncccc5Cl)CC4)n3-2)OCCO1 | – | – | 0.26 nM | 1.2 nM | 10.6 µL/min/mg | 51 µL/min/mg | 58.5 µL/min/mg | – | – | – | – | – | –
19 | COC1(c2ccccc2)CCN(c2nnc3n2-c2ccc(Cl)cc2CC2(C3)OCCO2)CC1 | 34 ×10⁻⁶ cm/s | 11000 nM | 0.17 nM | 11 nM | 6.9 µL/min/mg | 62.2 µL/min/mg | 51.7 µL/min/mg | – | – | – | – | – | –
20 | Cc1ccccc1C(=O)NC1CCN(c2nnc3n2-c2ccc(Cl)cc2CC2(C3)OCCO2)CC1 | – | – | 0.35 nM | 9 nM | – | – | – | – | – | – | – | – | –
21 | Clc1ccc2c(c1)CC1(Cc3nnc([C@H]4CC[C@H](Oc5ccccn5)CC4)n3-2)OCCO1 | 59.3 ×10⁻⁶ cm/s | 9100 nM | – | – | 13 µL/min/mg | 28 µL/min/mg | 25 µL/min/mg | 80% | 86% | 42% | – | – | –
22 | COC1(c2ccccc2)CCN(c2nnc3n2-c2ccc(Cl)cc2CC(C(N)=O)C3)CC1 (stereo not given) | – | – | 1.3 nM | 1610 nM | 3 µL/min/mg | 7.1 µL/min/mg | 13.9 µL/min/mg | – | – | – | – | – | –
23 | COc1ccccc1N1CCN(c2nnc3n2-c2ccc(Cl)cc2CC2(C3)OCCO2)CC1 | – | – | 0.4 nM | 2 nM | – | – | – | – | – | – | – | – | –
24 | Clc1ccc2c(c1)CC1(Cc3nnc(N4CCN(c5cccc6c5COC6)CC4)n3-2)OCCO1 | – | 7900 nM | 0.5 nM | 2.8 nM | 17 µL/min/mg | 29.4 µL/min/mg | 30.5 µL/min/mg | – | – | – | – | – | –
25 | NC(=O)C1Cc2cc(Cl)ccc2-n2c(nnc2N2CCN(c3cccc(Cl)c3)CC2)C1 (stereo not given) | – | – | 7.7 nM | 259 nM | 3.7 µL/min/mg | 7 µL/min/mg | 9.2 µL/min/mg | – | – | – | – | – | –
26 | NC(=O)C1Cc2cc(Cl)ccc2-n2c(nnc2N2CCC(Oc3ccccn3)CC2)C1 (stereo not given) | – | – | 1.4 nM | 3620 nM | 0.5 µL/min/mg | 7.6 µL/min/mg | 6.2 µL/min/mg | – | – | – | – | – | –
27 | Clc1ccc2c(c1)CC1(Cc3nnc(N4CCC5(CC4)OCc4ccccc45)n3-2)OCCO1 | – | – | – | 1.6 nM | 12 µL/min/mg | 166 µL/min/mg | 194 µL/min/mg | – | – | – | – | – | –
28 | Cc1ccccc1C(=O)Nc1ccc(C(=O)N2CCCC(O)c3cc(Cl)ccc32)c(C)c1 (stereo not given) [TOLVAPTAN] | 46.7 ×10⁻⁶ cm/s | – | – | – | 12 µL/min/mg | 168 µL/min/mg | 32 µL/min/mg | – | – | – | – | – | –
29 | O=C1c2ccccc2CCN1C1CCN(c2nnc3n2-c2ccc(Cl)cc2CC2(C3)OCCO2)CC1 | – | – | 0.25 nM | 13 nM | – | – | – | – | – | – | – | – | –
30 | Cc1cccc(N2CCN(c3nnc4n3-c3ccc(Cl)cc3CC3(C4)OCCO3)CC2)c1C | – | 10000 nM | 0.5 nM | 0.7 nM | 5.8 µL/min/mg | 28 µL/min/mg | 23.3 µL/min/mg | 104% | 83% | 69% | – | 5.7 nM | 0.4 nM
31 | Clc1ccc2c(c1)CC1(Cc3nnc(N4CCC(N5CCCCC5)CC4)n3-2)OCCO1 | 2.4 ×10⁻⁶ cm/s | – | 2.04 nM | 998 nM | 0.2 µL/min/mg | 1.15 µL/min/mg | 1.15 µL/min/mg | – | – | – | – | – | –
32 | OC1Cc2cc(Cl)ccc2-n2c(nnc2N2CCN(c3cccc4c3OCC4)CC2)C1 (stereo not given) | – | – | 1.4 nM | 11 nM | 13.5 µL/min/mg | 26.2 µL/min/mg | 14.3 µL/min/mg | – | – | – | – | – | –
33 | Clc1ccc2c(c1)CC1(CCCO1)Cc1nnc(N3CCN(c4cccc5c4OCC5)CC3)n1-2 (stereo not given) | – | – | 1.4 nM | 5.1 nM | – | – | – | – | – | – | – | – | –
34 | Clc1ccc2c(c1)CC1(Cc3nnc(C4CCN(c5cccc6c5OCC6)CC4)n3-2)OCCO1 | – | – | 0.2 nM | 4 nM | – | – | – | – | – | – | – | – | –
